Experimental data as given in patent US5942494A, “Stimulation of gene expression and synthesis of heat shock protein 72/73 (HSP 70)” (The Trustees of Columbia University in the City of New York, priority 1996, dated 1999).
Square brackets hold non-standard residues; d marks the D form. Peptide text beside a SMILES is read from it. Nle = CCCC[C@H](N)C(=O)O

Experiments:
Hsp70 = Hsp70 levels by denaturing immunoprecipitation of [3H]-leucine radiolabeled HepG2 cells; type: cell-based, human; conditions: for Hsp70 levels after removal of ALLN: 4-hour preincubation
Experimental: The HepG2 cell culture conditions were maintained as previously described (Dixon, et al., 1991). The cells were seeded into collagen-pre-coated dishes or six-well tissue culture plates and grown in complete medium containing minimum essential medium (MEM) with 0.1 mM nonessential amino acids, 1.0 mM sodium pyruvate, penicillin/streptomycin, and 10% fetal bovine serum. Cells were fed fresh complete medium every 3 days and maintained in a 5% CO2 incubator. All experiments were performed by using exponentially growing cells at 90-95% confluency. For heat shock treatment, the dishes were sealed with Parafilm and immersed in a water bath at 42° C. for indicated durations of time. Cells were incubated with ALLN alone at indicated concentrations or combined with other chemicals at 37° C. Cells were also incubated with different protease inhibitors alone at indicated concentrations or combined with other chemicals at 37° C.
(§1) HepG2 cells were preincubated for 4 hours in serum-free MEM and then radiolabeled with ^3 H-Leucine (150 μCi/ml) in a serum-free, leucine-free medium. Preincubation and labeling media each contained either 1.5% bovine serum albumin (BSA) alone, or BSA plus ALLN (40 μg/ml except as otherwise indicated), or BSA plus other protease inhibitors at concentrations indicated in the figure legends. At the indicated times, cells were removed from the 37° C. incubator and placed on ice, washed with cold phosphate-buffer saline (PBS) twice and lysed with lysis buffer containing 1% Triton X-100 (TX100), 1% deoxycholic acid (DOC) and 0.1% SDS in PBS containing proteinase inhibitors: 2 mM phenylmethylsulfonyl fluoride (PMSF); 2 μg/ml ALLN; 2 μg/ml leupeptin; and 2 μg/ml aprotinin. After a 30 min. incubation with lysis buffer at 4° C., the lysates were centrifuged at 14,000 g in a microcentrifuge for 5 min., and the supernatants were adjusted to 1% SDS concentration and boiled for 5 min. to denature the proteins. 1% TX100 was then added to dilute the lysates to a final concentration of 0.1% SDS. Cell lysates containing equal amounts of trichloroacetic acid (TCA)-insoluble radioactivity were used for immunoprecipitations by incubating with individual monoclonal antibody (1 μg/ml) for 2.5 hours at 4° C. Protein-A Sepharose 4B was added afterwards and the lysates incubated for another 1.5 hours at 4° C. to collect the immunocomplexes. After washing four times with 1×NET buffer (containing 0.5% TX100, 0.1% SDS), the immunocomplexes were mixed with sample buffer and boiled for 5 min. Following centrifugation, the supernatants were aliquoted for scintillation counting and for 3-15% gradient polyacrymide gel electrophoresis (SDS-PAGE) . The gels were later subjected to fluorography. All values are presented as the mean ± S.D. from three individual experiments except as otherwise indicated.
Denaturing immunoprecipitation was chosen because Hsp70 is a major cytosolic chaperone protein and it is co-immunoprecipitated with a number of other proteins under non-denaturingconditions (Beckmann, et al., 1990; Zhou, et al., 1995).

HepG2 cells = experiment: Total incorporation of radiolabel (TCA cpm) as indicator of cell toxicity, HepG2; type: cell-based, human; conditions: ALLN 10 μg/ml, HepG2
Experimental: as §1

[1] = test system: human microvascular endothelial cell line; experiment: TCA-cpm measurement in human microvascular endothelial cell line; type: cell-based; conditions: ALLN 40 μg/ml, 4 hours, 30 min. labeling
Hsp90 = experiment: Immunoprecipitation of Hsp90 from radiolabeled HepG2 cells; type: cell-based, human; conditions: HepG2, ALLN 4 hours
Experimental: (§2) FIGS. 7A-7B: Effects of ALLN on the biosynthesis of other members of Hsp family and related proteins. HepG2 cells were pre-treated and radiolabeled with or without ALLN for 4 hours as described in FIG. 1. Cell lysates were used for SDS-PAGE (A), or for immunoprecipitation with anti-Hsp25, -Hsp27, -Hsp60, -Hsp70, -Hsp86, -Hsp90, -Hsp104, -Bip, or -albumin antibodies respectively (1 μg/ml) (B). Because the anti-Hsp25, -Hsp27, -Hsp60 and Hsp90 antibodies are from a rat source, rabbit anti-rat IgG antibody was added after the first incubation, and the incubation was extended for another 1 hour at 4° C. before collection with protein A-Sepharose.Immunoprecipitates were loaded for SDS-PAGE and aliquoted for scintillation counting and plotting. Each value was presented as mean ±S.D. from three individual culture dishes.
(§3) HepG2 cells were preincubated for 4 hours in serum-free MEM and then radiolabeled with ^3 H-Leucine (150 μCi/ml) in a serum-free, leucine-free medium. […] Cell lysates containing equal amounts of trichloroacetic acid (TCA)-insoluble radioactivity were used for immunoprecipitations by incubating with individual monoclonal antibody (1 μg/ml) for 2.5 hours at 4° C. […]

Hsp27 = experiment: Immunoprecipitation of Hsp27 from radiolabeled HepG2 cells; type: cell-based, human; conditions: HepG2, ALLN 4 hours
Experimental: as §2, §3

albumin = experiment: Immunoprecipitation of albumin from radiolabeled HepG2 cells; type: cell-based, human; conditions: HepG2, ALLN 4 hours
Experimental: as §2, §3

[2] = test system: protein of about 80-90 kDa; experiment: Whole-cell protein pattern of [3H]-leucine-labeled HepG2 lysates on SDS-PAGE; type: cell-based, human; conditions: ALLN-treated versus control HepG2 cells, FIG. 2A
From the text: It was reported (Liu, et al., 1989) that in human diploid fibroblasts, heat shock treatment could induce the synthesis of several members of the Hsp family, including Hsp25, Hsp50, Hsp64, Hsp72, Hsp78, Hsp89 and Hsp98. Short, sublethal episodes of cardiac ischemia increase both Hsp70 and Hsp60 (Marber, et al., 1988). Such complex induction patterns may reflect an increased requirement for several of these Hsps, i.e., the need for several of these Hsps to increase, in order to prevent or protect pre-existing proteins from denaturation. […] It would be interesting to characterize this polypeptide and to identify its roles in the ALLN-induced cellular response.

proteasomes = conditions: Rock, et al., 1994; cited from earlier work
cathepsin B = cathepsin B (Homo sapiens, UniProt P07858); conditions: Rock, et al., 1994; cited from earlier work

## CCCC[C@@H](C=O)NC(=O)[C@H](CC(C)C)NC(=O)[C@H](CC(C)C)NC(C)=O [ALLN, N-acetyl-leucyl-leucyl-norleucinal] (Ac-Leu-Leu-[Nle]-aldehyde)
Hsp70; end of a 2-hour wash
  Hsp70 levels after removal of ALLN: 25 fold
Hsp70; end of a 6-hour wash
  Hsp70 levels after removal of ALLN: 8 fold
Hsp70; end of an 8-hour wash
  Hsp70 levels after removal of ALLN: 4 fold
Hsp70; 30 min. labeling, data from several experiments
  Increment of newly synthesized Hsp70 levels compared with untreated cells: ~30 fold
Hsp70; ALLN 10 μg/ml, 4 hours pre-treatment, HepG2
  Hsp70 levels induced: more than 9 fold
Hsp70; ALLN 40 μg/ml 4 hours preincubation, labeling 10-60 min, every time point
  Increase of rate of incorporation of [3H]-leucine into Hsp70: about 25 fold
Hsp70; HepG2, 4 hours pre-treatment, ALLN, ALLM 40 μg/ml, leupeptin, pepstatin A 50 μg/ml, E-64d 25 μg/ml, PMSF 1 mM, aprotinin 100 KIU/ml, Benz 1 mM, CIP 200 μM
  Induction of Hsp70 by protease inhibitors: significantly induce
Hsp70; HepG2 cells and human endothelial cells, maximal induction
  Induction of Hsp70 levels above baseline: up to 30 fold
HepG2 cells
  Cell total incorporation of radiolabel (TCA cpm, an indicator of cell toxicity): did not change significantly
[1]
  TCA-cpm measurement: no change
Hsp90
  Effect on Hsp90: no effects
Hsp27
  Effect on Hsp27: no effects
albumin
  Effect on albumin: no effects
[2]
  Synthesis of a protein of about 80-90 kDa: also increased
proteasomes
  Inhibition of proteasomes: potent inhibitors
Cathepsin B
  Activity against cathepsin B: significant activities
